Measurements from patent US9796711B2, “Substituted pyrazolo[3,4-b]pyridin-6-carboxylic acids and method of use” (AbbVie S.àr.l., priority 2015, dated 2017).

Columns and labels:
ΔF508-CFTR [1] = target: T1, ΔF508-CFTR (Homo sapiens, UniProt P13569, DEL508-508); assay: CFTR cell surface levels using HRP-tagged ΔF508-CFTR expressing CFBE cells, intrinsic corrector capacity; format: cell-based; settings: for EC50: read-out: EC50
T1 construct: host or cells: CFBE41o-, doxycycline-inducible
Method in brief: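 Here the cells express ΔF508-CFTR with horseradish peroxidase inserted in extracellular loop 4, so only rescued channel at the surface gives luminescent signal. Compounds act on their own, 20 h at the reduced temperature of 33 °C; values are percent activity relative to DMSO and a 3 μM corrector.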

ΔF508-CFTR [2] = target: T1, ΔF508-CFTR; assay: CFTR cell surface levels using HRP-tagged ΔF508-CFTR expressing CFBE cells, in the presence of a co-corrector; format: cell-based; settings: HRP-tagged ΔF508-CFTR expressing CFBE cells, in the presence of 3 μM co-corrector; for EC50: read-out: EC50
Method in brief: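 Cells were seeded with 0.5 μg/mL doxycycline and held 68 h at 37 °C. Test compounds plus 3 μM co-corrector (final 0.1% DMSO) were then added for 20 h at 33 °C. Washed cells received HRP substrate, and luminescence was normalized between DMSO and 3 μM co-corrector controls.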

[3] = HRP-tagged ΔF508-CFTR expressing CFBE cells, intrinsic corrector capacity (no co-corrector), 33° C., 20 hours
[4] = HRP-tagged ΔF508-CFTR CFBE41o- cells, compounds alone (intrinsic corrector capacity), 20 hours at 33° C., positive control 3 μM corrector
[5] = HRP-tagged ΔF508-CFTR CFBE41o- cells, compounds alone (intrinsic corrector capacity), 20 hours at 33° C.

T1 sequence (P13569 with tags, fused parts or gaps DEL508-508): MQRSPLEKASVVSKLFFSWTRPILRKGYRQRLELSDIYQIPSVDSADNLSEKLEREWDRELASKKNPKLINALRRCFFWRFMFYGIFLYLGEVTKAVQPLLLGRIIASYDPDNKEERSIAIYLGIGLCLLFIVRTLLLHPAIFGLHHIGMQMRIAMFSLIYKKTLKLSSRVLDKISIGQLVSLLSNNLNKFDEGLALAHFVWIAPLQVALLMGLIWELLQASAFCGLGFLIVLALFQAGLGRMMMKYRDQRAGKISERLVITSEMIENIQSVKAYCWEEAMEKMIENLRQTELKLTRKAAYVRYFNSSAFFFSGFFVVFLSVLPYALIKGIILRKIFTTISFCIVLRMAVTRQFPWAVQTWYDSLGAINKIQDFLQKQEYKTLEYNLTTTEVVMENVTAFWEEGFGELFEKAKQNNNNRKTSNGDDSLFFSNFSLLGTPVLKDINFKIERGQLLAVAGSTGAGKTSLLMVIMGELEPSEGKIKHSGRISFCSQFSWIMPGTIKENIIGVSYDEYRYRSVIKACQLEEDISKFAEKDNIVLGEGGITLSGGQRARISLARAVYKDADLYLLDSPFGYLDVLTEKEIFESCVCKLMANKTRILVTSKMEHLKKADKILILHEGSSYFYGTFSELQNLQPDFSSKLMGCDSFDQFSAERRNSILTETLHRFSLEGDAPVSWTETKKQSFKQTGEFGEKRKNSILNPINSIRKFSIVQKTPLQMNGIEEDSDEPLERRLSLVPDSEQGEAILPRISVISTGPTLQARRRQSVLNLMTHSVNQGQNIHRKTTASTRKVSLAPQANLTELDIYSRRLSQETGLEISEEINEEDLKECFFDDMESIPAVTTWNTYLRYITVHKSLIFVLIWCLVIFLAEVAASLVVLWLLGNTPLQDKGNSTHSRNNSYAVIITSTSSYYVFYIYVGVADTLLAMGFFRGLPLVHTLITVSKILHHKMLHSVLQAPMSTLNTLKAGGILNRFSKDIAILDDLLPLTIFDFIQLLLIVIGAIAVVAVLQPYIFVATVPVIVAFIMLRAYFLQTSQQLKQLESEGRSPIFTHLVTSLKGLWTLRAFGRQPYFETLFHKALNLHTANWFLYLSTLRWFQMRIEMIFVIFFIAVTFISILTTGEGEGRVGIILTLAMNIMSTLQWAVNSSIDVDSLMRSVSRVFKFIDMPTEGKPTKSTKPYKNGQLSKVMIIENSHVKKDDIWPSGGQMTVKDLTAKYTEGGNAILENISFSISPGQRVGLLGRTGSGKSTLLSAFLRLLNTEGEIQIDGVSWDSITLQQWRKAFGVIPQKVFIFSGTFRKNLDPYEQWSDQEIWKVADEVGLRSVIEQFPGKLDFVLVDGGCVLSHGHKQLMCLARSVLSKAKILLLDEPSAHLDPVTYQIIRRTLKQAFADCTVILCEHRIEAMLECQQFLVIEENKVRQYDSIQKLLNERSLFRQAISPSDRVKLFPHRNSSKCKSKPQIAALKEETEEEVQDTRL

SMILES	% Activation (ΔF508-CFTR [1]; [3]) [%]	EC50 (ΔF508-CFTR [1]; [3]) [nM]	% Activation (ΔF508-CFTR [2]) [%]	EC50 (ΔF508-CFTR [2]) [nM]	% Activation (ΔF508-CFTR [1]; [4]) [%]	EC50 (ΔF508-CFTR [1]; [5]) [nM]
CC(C)c1nn(C2CCCCC2)c2nc(C(=O)O)cc(C3=CC(C)(C)OC(C)(C)C3)c12 [compound 402, 1-cyclohexyl-3-(propan-2-yl)-4-(2,2,6,6-tetramethyl-3,6-dihydro-2H-pyran-4-yl)-1H-pyrazolo[3,4-b]pyridine-6-carboxylic acid]	43.815	715	214.5	1110		
O=C(CN1CCN(c2cc(C(=O)O)nc3c2c(C2CCC2)nn3-c2ccccc2)CC1)NC1CCCCC1 [compound 540, 3-cyclobutyl-4-{4-[2-(cyclohexylamino)-2-oxoethyl]piperazin-1-yl}-1-phenyl-1H-pyrazolo[3,4-b]pyridine-6-carboxylic acid]	142.2	452	314.05	324		
Cc1cccc(-n2nc(C(C)C)c3c(N4CCCC4)cc(C(=O)O)nc32)c1 [compound 173, 1-(3-methylphenyl)-3-(propan-2-yl)-4-(pyrrolidin-1-yl)-1H-pyrazolo[3,4-b]pyridine-6-carboxylic acid]			380.52	2530	182.82	2950
O=C(O)c1cc(N2CC[C@@H](F)[C@H](O)C2)c2c(C3CCC3)nn(-c3ccccc3)c2n1 [compound 465, 3-cyclobutyl-4-[(3R,4R)-4-fluoro-3-hydroxypiperidin-1-yl]-1-phenyl-1H-pyrazolo[3,4-b]pyridine-6-carboxylic acid]	91.04	1850	244.6	703		
COCC1(OC)CCN(c2cc(C(=O)O)nc3c2c(C2CCC2)nn3-c2ccccc2)CC1 [compound 526, 3-cyclobutyl-4-[4-methoxy-4-(methoxymethyl)piperidin-1-yl]-1-phenyl-1H-pyrazolo[3,4-b]pyridine-6-carboxylic acid]	97.7	406	284.5	370		
COCC1CCN(c2cc(C(=O)O)nc3c2c(C(C)C)nn3-c2ccnc(N3CCOCC3)c2)CC1 [compound 525, 4-[4-(methoxymethyl)piperidin-1-yl]-1-[2-(morpholin-4-yl)pyridin-4-yl]-3-(propan-2-yl)-1H-pyrazolo[3,4-b]pyridine-6-carboxylic acid]	232.2	416	311.3	936		
O=C(O)c1cc(N2CC3CC3C2)c2c(C3CCC3)nn(-c3ccccc3)c2n1 (centres unmarked) [compound 406, 4-(3-azabicyclo[3.1.0]hexan-3-yl)-3-cyclobutyl-1-phenyl-1H-pyrazolo[3,4-b]pyridine-6-carboxylic acid]	182.5	823	359.55	641		
O=C(O)c1cc(N2CCC(N3CCOCC3)CC2)c2c(C3CCC3)nn(-c3ccc4c(c3)CC4)c2n1 [compound 911, 1-(bicyclo[4.2.0]octa-1,3,5-trien-3-yl)-3-cyclobutyl-4-[4-(morpholin-4-yl)piperidin-1-yl]-1H-pyrazolo[3,4-b]pyridine-6-carboxylic acid]	222.45	190	405.9	74		
O=C(O)c1cc(OCCN2CCCCC2)c2c(C3CCC3)nn(-c3ccccc3)c2n1 [compound 639, 3-cyclobutyl-1-phenyl-4-[2-(piperidin-1-yl)ethoxy]-1H-pyrazolo[3,4-b]pyridine-6-carboxylic acid]	96.54	2210	261.7	1670		
O=C(O)c1cc(N2CC3(CCOCC3)C2)c2c(C3CCC3)nn(-c3ccccc3)c2n1 [compound 425, 3-cyclobutyl-4-(7-oxa-2-azaspiro[3.5]nonan-2-yl)-1-phenyl-1H-pyrazolo[3,4-b]pyridine-6-carboxylic acid]	123.35	990	262.45	349		
Cc1nn(-c2ccccc2)c2nc(C(=O)O)cc(OCCN3CCS(=O)(=O)CC3)c12 [compound 334, 4-[2-(1,1-dioxo-lλ^6,4-thiazinan-4-yl)ethoxy]-3-methyl-1-phenyl-1H-pyrazolo[3,4-b]pyridine-6-carboxylic acid]			226.6	1900	36.645	4170
CC(C)c1nn(-c2ccc(F)cc2)c2nc(C(=O)O)cc(N3CCN(CC4CCCN(C)C4)CC3)c12 (centres unmarked) [compound 791, 1-(4-fluorophenyl)-4-{4-[(1-methylpiperidin-3-yl)methyl]piperazin-1-yl}-3-(propan-2-yl)-1H-pyrazolo[3,4-b]pyridine-6-carboxylic acid]	79.95	1670	307.5	1670		
CN1CCN(Cc2cc(C(=O)O)nc3c2c(C2CCC2)nn3-c2ccc(F)cc2)CC1 [compound 858, 3-cyclobutyl-1-(4-fluorophenyl)-4-[(4-methylpiperazin-1-yl)methyl]-1H-pyrazolo[3,4-b]pyridine-6-carboxylic acid]	29.24		168.6	3180		
CC1(CCOc2cc(C(=O)O)nc3c2c(C2CCC2)nn3-c2ccccc2)CC1 [compound 631, 3-cyclobutyl-4-[2-(1-methylcyclopropyl)ethoxy]-1-phenyl-1H-pyrazolo[3,4-b]pyridine-6-carboxylic acid]	99.143	346	283	177		
COC1CCN(c2cc(C(=O)O)nc3c2c(C(C)C)nn3-c2ccnc(N3CCCC3)c2)CC1 [compound 412, 4-(4-methoxypiperidin-1-yl)-3-(propan-2-yl)-1-[2-(pyrrolidin-1-yl)pyridin-4-yl]-1H-pyrazolo[3,4-b]pyridine-6-carboxylic acid]	215.6	460	387.2	307		
COC1CCN(c2cc(C(=O)O)nc3c2c(C)nn3-c2ccccc2)CC1 [compound 143, 4-(4-methoxypiperidin-1-yl)-3-methyl-1-phenyl-1H-pyrazolo[3,4-b]pyridine-6-carboxylic acid]			246.8	2420	109.45	2290
O=C(O)c1cc(N2CCC([C@H](F)CO)CC2)c2c(C3CCC3)nn(-c3ccccc3)c2n1 [compound 457, 3-cyclobutyl-4-{4-[(1S)-1-fluoro-2-hydroxyethyl]piperidin-1-yl}-1-phenyl-1H-pyrazolo[3,4-b]pyridine-6-carboxylic acid]	240.3	607	430.85	392		
CC(C)c1nn(-c2cccc(N3CCOCC3)c2)c2nc(C(=O)O)cc(-c3ccc(N4CCOCC4)cc3)c12 [compound 121, 1-[3-(morpholin-4-yl)phenyl]-4-[4-(morpholin-4-yl)phenyl]-3-(propan-2-yl)-1H-pyrazolo[3,4-b]pyridine-6-carboxylic acid]			603.1	758	401.5	528
